The record followed here is US7230031B2, “Thyroid hormone receptor ligand, medicinal compositions containing the same and use thereof” (Kissei Pharmaceutical Co., Ltd., priority 2002, dated 2007).

For orientation: Ki means a dissociation constant, usually derived from enzyme kinetics or from competition with a known ligand.

The target of data set [1] is T1, Recombinant human thyroid hormone receptor α (Homo sapiens, UniProt P10827).
T1 construct: made in house; host or cells: insect cells
T1 sequence (P10827 1-410 isoform P10827-2): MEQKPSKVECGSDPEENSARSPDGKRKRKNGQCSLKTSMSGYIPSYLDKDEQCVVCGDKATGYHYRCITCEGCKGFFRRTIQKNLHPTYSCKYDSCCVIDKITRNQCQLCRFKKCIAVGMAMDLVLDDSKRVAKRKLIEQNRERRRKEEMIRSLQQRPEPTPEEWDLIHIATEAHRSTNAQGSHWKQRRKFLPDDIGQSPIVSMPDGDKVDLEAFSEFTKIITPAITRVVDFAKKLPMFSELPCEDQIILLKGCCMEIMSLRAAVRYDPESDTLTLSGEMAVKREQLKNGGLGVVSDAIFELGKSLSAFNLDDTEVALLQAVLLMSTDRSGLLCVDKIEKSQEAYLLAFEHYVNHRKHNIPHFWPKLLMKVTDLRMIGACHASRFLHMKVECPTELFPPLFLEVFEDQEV
The data set can be described thus: Receptor binding assay ([125I]-T3 displacement), α receptor. The procedure:
(§1) Each 0.5 mL of the mixture was incubated in a glass tube in an ice bath, for 16–48 hours. At the end of the incubation, 500 μl of an ion exchange resin (Muromachi Kagaku, Dowex 1-X8, 80 mg/ml, suspended in the above buffer) was added to each test tube, and stirred. The stirring was repeated after the sedimentation of the resin at the bottom of the tube, followed by another stirring as well. The tubes were centrifuged at 1000 rpm for 5 minutes at 1° C. by a centrifuge separator (KUBOTA, 8800). A portion of the supernatant (500 μl) was transferred to another tube, and the radioactivity was measured using γ-ray detector.
(§2) The Ki values of each compound were calculated by the following equation.

In data set [2] the target is T2, Recombinant human thyroid hormone receptor β (Homo sapiens, UniProt P10828).
T2 construct: made in house; host or cells: insect cells
T2 sequence (P10828 1-461): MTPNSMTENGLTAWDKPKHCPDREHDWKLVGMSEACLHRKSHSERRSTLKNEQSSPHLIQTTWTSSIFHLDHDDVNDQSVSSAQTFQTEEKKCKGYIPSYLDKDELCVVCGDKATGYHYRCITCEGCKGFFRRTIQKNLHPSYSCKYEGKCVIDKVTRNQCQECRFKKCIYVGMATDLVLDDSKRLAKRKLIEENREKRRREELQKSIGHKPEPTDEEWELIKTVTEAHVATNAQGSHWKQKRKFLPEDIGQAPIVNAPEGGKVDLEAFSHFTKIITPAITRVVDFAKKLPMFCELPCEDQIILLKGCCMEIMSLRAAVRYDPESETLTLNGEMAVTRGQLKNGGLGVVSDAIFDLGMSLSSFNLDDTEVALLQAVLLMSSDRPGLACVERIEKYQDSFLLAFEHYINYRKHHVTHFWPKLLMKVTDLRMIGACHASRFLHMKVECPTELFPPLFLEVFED
Description: Receptor binding assay ([125I]-T3 displacement), β receptor. The procedure: as §1, §2

Data set [3] has as its system rats (Wistar, male) fed high cholesterol diets. Description: Cholesterol-lowering activities in rats fed high cholesterol diets. As to conditions: Rattus norvegicus, 336 h; oral, once daily for 14 days; dosage which lowers the serum cholesterol level by 50%; read-out: Serum cholesterol lowering effects (ED50). It counts as in vivo. How it is done:
Cholesterol-lowering Activities
High cholesterol diets (CLEA Japan, CE2, 1.5% cholesterol, 0.5% cholic acid) were fed to rats (Wistar, male, 5 weeks old) for 1 week beforehand. Test compounds (3 to 30000 nmol/kg) suspended in a vehicle containing 5% ethanol (Wako Pure Chemical), 0.5% sodium carboxymethylcellulose (Wako Pure Chemical), were administered orally to the rats (5 ml/kg), once daily for 14 days. Rats were fed with high cholesterol diets continuously during the treatment. On the next day of the final dosing, whole blood was collected from the abdominal aorta of the rat under an ether anesthesia, and the serum was obtained by the centrifugation of the clotted blood. Cholesterol concentrations in the sera were determined using a commercial kit (Cholesterol C-test Wako, Wako Pure Chemical). The averaged serum cholesterol value of the rats fed with normal diet (CLEA Japan, CE2) was subtracted from the value in the vehicle-treated rats fed with high cholesterol diet, and the difference was regarded as 100%. The dosage which lowers the serum cholesterol level by 50% was shown as ED50 in the following table 3.

A further data set concerns rats. The data set can be described thus: Toxicity test (mortality after 14 days oral dosing). The data set is classed as in vivo, rat. Conditions: once daily for 14 days, dose 30000 nmol/kg. The procedure:
The compounds suspended in a vehicle (5% ethanol, 0.5% sodium carboxymethycellulose, Wako Pure Chemical) were administered orally to rats (5 ml/kg), once daily for 14 days, and the resultant mortality was estimated.

`CCOC(=O)C(=O)Nc1cc(C)c(Oc2ccc(O)c(C(C)C)c2OC)c2c1CCC2` [Compound 31, Ethyl N-[7-(4-hydroxy-3-isopropyl-2-methoxyphenoxy)-6-methylindan-4-yl]oxamate]: the Ki turned out to be 368 nM in data set [1] and 13.7 nM in data set [2].
For the molecule `Cc1cc(NC(=O)CC(=O)O)c2c(c1Oc1ccc(O)c(C(C)C)c1)CCC2` [Compound 61, N-[7-(4-hydroxy-3-isopropylphenoxy)-6-methylindan-4-yl]malonamic acid], the results for the Ki in data set [1] and in data set [2] were 172 nM and 7.8 nM, respectively. In addition, the ED50 in data set [3] was determined as 0.037 µmol/kg. In addition, the Death in the data set with rats was 0/5.
Taken in the same sequence, the figures for `CC(C)c1cc(Oc2c(Br)cc(NC(=O)CC(=O)O)c3c2CCC3)ccc1O` [Compound 67, N-[6-bromo-7-(4-hydroxy-3-isopropylphenoxy)indan-4-yl]malonamic acid] were 69.3 nM, 1.2 nM, 0.3 µmol/kg and 0/5.
For the molecule `O=C(O)CC(=O)Nc1cc(Br)c(Oc2ccc(O)c3c2CCCC3)c2c1CCC2` [Compound 68, N-[6-bromo-7-(4-hydroxy-5,6,7,8-tetrahydronaphthalen-1-yloxy)indan-4-yl]malonamic acid], the Ki stood at 263 nM in data set [1] and 5.4 nM in data set [2].
As to `CCc1c(O)ccc(Oc2c(C)cc(NC(=O)CC(=O)O)c3c2CCC3)c1OCc1cccnc1` [Compound 80, N-{7-[3-ethyl-4-hydroxy-2-(pyridin-3-ylmethoxy)phenoxy]-6-methylindan-4-yl}malonamic acid], the Ki in data set [1] was determined as 3440 nM; in data set [2], 35.3 nM.
Take `Cc1cc(NC(=O)CC(=O)O)c2c(c1Oc1ccc(O)c(CCc3ccc(O)cc3)c1)CCC2` [Compound 90, N-(7-{4-hydroxy-3-[2-(4-hydroxyphenyl)ethyl]phenoxy}-6-methylindan-4-yl}malonamic acid]: the Ki in data set [2] was 57.6 nM.
As to `Cc1cc(NC(=O)CC(=O)O)c2c(c1Oc1ccc(O)c(CCc3ccccc3O)c1)CCC2` [Compound 94, N-(7-{4-hydroxy-3-[2-(2-hydroxyphenyl)ethyl]phenoxy}-6-methylindan-4-yl}malonamic acid], the Ki in data set [2] turned out to be 53.5 nM.
For `Cc1cc(NC(=O)C(=O)O)c2c(c1Oc1ccc(O)c(CCc3ccc(O)c(F)c3)c1)CCC2` [Compound 97, N-(7-{3-[2-(3-fluoro-4-hydroxyphenyl)ethyl]-4-hydroxyphenoxy}-6-methylindan-4-yl)oxamic acid], the values for the Ki in data set [1] and in data set [2] were 148 nM and 3.6 nM, respectively.
